Experimental data from US10590106B2, “Certain chemical entities, compositions, and methods” (NeuPharma, Inc., priority 2012, dated 2020).

What was measured:
BRAF V600E = BRAF V600E (Homo sapiens (Human), UniProt P15056, V600E); test: Inhibitory activity against kinase BRAF V600E, Z'-LYTE method (Invitrogen); type: biochemical; settings: for inhibition at 1 µM: 1 μM compound, read-out: Inhibition (% inhibition at 1 μM) against BRAF V600E
Protocol: Inhibitory activities Inhibitory activities of compounds against BRAF, and BRAF V600E were measured by Invitrogen using Z′-LYTE® Method as briefly described in the following. 4× Test compounds are dissolved in 1% DMSO. […] ATP solutions are diluted to a 4×ATP working concentration in Kinase Buffer (50 mM HEPES pH 7.5, 0.01% BRIJ-35, 10 mM MgCl2, 1 mM EGTA). Reaction started by 30-second shaking of mixture consisting of 2.5 μL 4× test compound, […] and 2.5 μL 4×ATP Solution on Bar-coded Corning, low volume NBS, black 384-well plate (Corning Cat. #3676). Then the mixture was incubated for 60-minute at room temperature for the kinase reaction, followed by addition of 5 μL of a 1:1024 dilution of development reagent A and 30-second plate shake. The mixture was then incubated for another 60-minute at room temperature for development reaction. Fluorescence was read by plate reader. IC50 was calculated by plotting the concentration of compound vs the percentage of inhibition in treated wells using GraphPad Prism 5.
Table 2 and 3 show % inhibition at 1 μM of several compounds of the invention against BRAF and BRAF V600E, respectively, using Z′-LYTE® method.
The scale utilized in Table 4 is as follows: +++ less than 100 nM; and ++ greater than 100 nM.

KDR (VEGFR2) = KDR (VEGFR2) (Homo sapiens (Human), UniProt P35968); test: Inhibitory activity against kinase KDR, Z'-LYTE method (Invitrogen); type: biochemical; settings: for inhibition at 1 µM: 1 μM compound, read-out: Inhibition (% inhibition at 1 μM) against KDR
Protocol: Inhibitory activities of compounds against KDR (VEGFR2) were also measured by Invitrogen using Z′-LYTE® Method as described above with the following modification. The 2× KDR (VEGFR2)/Tyr 01 mixture is prepared in 50 mM HEPES pH 7.5, 0.01% BRIJ-35, 10 mM MgCl2, 1 mM EGTA. The final 10 μL Kinase Reaction consists of 0.5-11.7 ng KDR (VEGFR2) and 2 μM Tyr 01 in 50 mM HEPES pH 7.5, 0.01% BRIJ-35, 10 mM MgCl2, 1 mM EGTA. After the 1 hour Kinase Reaction incubation, 5 μL of a 1:256 dilution of Development Reagent B is added.
The scale utilized in Table 5 is as follows: +++ less than 100 nM; and ++ greater than 100 nM

A375 cells = test: Inhibition of cancer cell growth, MTT or MTS assay, A375; type: cell-based; settings: Homo sapiens, A-375; 72 h incubation
Protocol: (§1) Inhibition of cell growth by compounds was measured using MTT or MTS assay. Tumor cell lines were purchased from ATCC (American Type Culture Collection, Manassas, Va.). All cell lines were maintained in RPMI 1640 (Hyclone) supplemented with 10% fetal bovine serum (FBS, Hyclone), glutamine (2 mM, Hyclone), and antibiotics (penicillin 100 U/mL and streptomycin 50 μg/mL) at 37° C. in a humidified atmosphere of 5% CO2 in air. Taxol (as a positive control, Sigma) and compounds were dissolved in DMSO (Sigma), and the final concentration of DMSO in the medium was 1%. Tumor cells were plated in 96-well plates at densities of about 2000 (A375) or 4000 (A549 and Colo205) cells/well of a 96-well plate and allowed to adhere/grow for 24 h. They were then treated with various concentrations of drug and incubated for 72 h. For MTT method, medium was then removed by inverting and tapping the plates. 100 μL of MTT (0.5 mg/ml) was added to each well followed by an incubated at 37° C. for 4 h. MTT was then removed and 200 μL of DMSO was added to each well, and the ODs at 570 nm were measured after a 5 second shaking cycle in a 96-well spectrophotometer. For MTS method, 20 μL MTS (CellTiter 96 Aqueous One Solution, Promega) was added to each well followed by an incubated at 37° C. for 2-4 h, solutions were then directly put in a 96-well spectrophotometer, and the ODs at 490 nm were measured.
(§2) All concentrations of compounds were tested in triplicate and controls were averaged over 4 wells. IC50 was calculated by plotting the concentration of compound vs the percentage of inhibition in treated wells using GraphPad Prism 5. […] The scale utilized in Tables […] is as follows: +++ less than 1000 nM; ++ between 1000 nM and 5000 nM; and + greater than 5000 nM. The scale utilized in Table 8 is as follows: +++ less than 2000 nM; ++ between 2000 nM and 5000 nM; and + greater than 5000 nM.

A549 cells = test: Inhibition of cancer cell growth, MTT or MTS assay, A549; type: cell-based; settings: Homo sapiens, 72 h incubation
Protocol: as §1, §2

Sequence of BRAF V600E (P15056 whole entry V600E): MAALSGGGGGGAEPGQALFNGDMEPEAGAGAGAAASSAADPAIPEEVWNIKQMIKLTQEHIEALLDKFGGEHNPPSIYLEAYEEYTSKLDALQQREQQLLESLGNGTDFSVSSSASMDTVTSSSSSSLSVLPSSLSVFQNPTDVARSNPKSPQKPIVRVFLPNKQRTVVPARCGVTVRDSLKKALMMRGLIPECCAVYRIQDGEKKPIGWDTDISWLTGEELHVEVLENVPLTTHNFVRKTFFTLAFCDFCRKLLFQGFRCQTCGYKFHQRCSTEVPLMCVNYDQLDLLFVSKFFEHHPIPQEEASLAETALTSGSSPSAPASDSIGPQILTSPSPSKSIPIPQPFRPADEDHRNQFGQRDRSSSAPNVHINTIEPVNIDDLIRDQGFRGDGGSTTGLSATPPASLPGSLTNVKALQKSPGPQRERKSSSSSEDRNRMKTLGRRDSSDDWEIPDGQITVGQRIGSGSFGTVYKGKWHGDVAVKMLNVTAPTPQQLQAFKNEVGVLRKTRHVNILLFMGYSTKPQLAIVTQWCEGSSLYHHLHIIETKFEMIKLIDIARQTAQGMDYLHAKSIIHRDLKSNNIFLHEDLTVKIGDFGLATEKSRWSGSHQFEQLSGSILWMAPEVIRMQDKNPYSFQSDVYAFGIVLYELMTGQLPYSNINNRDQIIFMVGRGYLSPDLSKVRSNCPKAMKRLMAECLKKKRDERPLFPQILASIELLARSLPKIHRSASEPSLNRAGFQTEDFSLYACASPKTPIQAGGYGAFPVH
Sequence of KDR (VEGFR2) (P35968 20-1356): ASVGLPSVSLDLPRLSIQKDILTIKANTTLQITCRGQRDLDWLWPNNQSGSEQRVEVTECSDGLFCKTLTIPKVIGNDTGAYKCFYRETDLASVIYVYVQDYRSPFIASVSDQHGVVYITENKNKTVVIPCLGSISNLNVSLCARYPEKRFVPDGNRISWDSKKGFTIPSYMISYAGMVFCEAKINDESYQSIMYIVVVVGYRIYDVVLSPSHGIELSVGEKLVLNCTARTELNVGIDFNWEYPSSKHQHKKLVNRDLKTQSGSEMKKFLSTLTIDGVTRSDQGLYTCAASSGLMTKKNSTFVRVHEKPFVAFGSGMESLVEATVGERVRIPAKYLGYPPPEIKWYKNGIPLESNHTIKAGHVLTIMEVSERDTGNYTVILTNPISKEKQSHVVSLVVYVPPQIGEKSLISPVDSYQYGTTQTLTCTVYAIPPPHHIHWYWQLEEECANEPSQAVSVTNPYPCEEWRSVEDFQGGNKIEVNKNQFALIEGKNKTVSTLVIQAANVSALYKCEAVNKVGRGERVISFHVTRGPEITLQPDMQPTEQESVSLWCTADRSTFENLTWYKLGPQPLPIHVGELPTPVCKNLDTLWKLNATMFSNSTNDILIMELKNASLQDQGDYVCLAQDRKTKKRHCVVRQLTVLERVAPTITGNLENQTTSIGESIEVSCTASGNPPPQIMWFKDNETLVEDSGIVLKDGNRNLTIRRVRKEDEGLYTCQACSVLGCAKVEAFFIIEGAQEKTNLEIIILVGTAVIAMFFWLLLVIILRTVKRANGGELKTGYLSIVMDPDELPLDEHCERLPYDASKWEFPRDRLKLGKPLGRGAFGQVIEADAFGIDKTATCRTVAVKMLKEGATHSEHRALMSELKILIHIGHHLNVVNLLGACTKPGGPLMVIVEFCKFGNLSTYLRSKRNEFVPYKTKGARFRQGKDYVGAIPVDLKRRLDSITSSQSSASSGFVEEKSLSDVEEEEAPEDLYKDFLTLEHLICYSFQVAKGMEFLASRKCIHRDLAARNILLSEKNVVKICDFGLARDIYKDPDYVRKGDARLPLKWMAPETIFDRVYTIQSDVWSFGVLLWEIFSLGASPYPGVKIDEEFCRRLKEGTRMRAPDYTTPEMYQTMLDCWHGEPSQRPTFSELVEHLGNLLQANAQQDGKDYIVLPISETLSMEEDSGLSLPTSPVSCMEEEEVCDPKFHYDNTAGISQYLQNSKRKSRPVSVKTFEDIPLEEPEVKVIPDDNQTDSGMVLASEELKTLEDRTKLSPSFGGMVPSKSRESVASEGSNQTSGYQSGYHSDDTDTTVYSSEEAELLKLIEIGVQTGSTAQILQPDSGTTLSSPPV

Structure (SMILES) | inhibition at 1 µM (BRAF V600E) [%] | inhibition at 1 µM (KDR (VEGFR2)) [%] | IC50 (A375 cells) [µM] | IC50 (A549 cells) [µM] | IC50 (BRAF V600E) [µM] | IC50 (KDR (VEGFR2)) [µM]
O=C(Nc1cccc(Oc2ccc3nccnc3c2)c1)c1cccc(F)c1 [Compound C004, 3-fluoro-N-(3-(quinoxalin-6-yloxy)phenyl)benzamide] | 70 to 89 | < 70 | > 5 | – | – | –
CCCS(=O)(=O)Nc1cccc(Oc2ccc3nccnc3c2)c1 [Compound C007, N-(3-(quinoxalin-6-yloxy)phenyl)propane-1-sulfonamide] | – | – | > 5 | > 5 | – | –
O=C(Nc1ccc(F)c(Oc2ccc3ncc(N4CCOCC4)nc3c2)c1)c1ccc(Cl)c(C(F)(F)F)c1 [Compound C008, 4-chloro-N-(4-fluoro-3-((3-morpholinoquinoxalin-6-yl)oxy)phenyl)-3-(trifluoromethyl)benzamide] | – | – | 1 to 5 | 2 to 5 | – | –
CCCS(=O)(=O)Nc1ccc(F)c(Oc2ccc3ncc(N4CCOCC4)nc3c2)c1 [Compound C012, N-(4-fluoro-3-((3-morpholinoquinoxalin-6-yl)oxy)phenyl)propane-1-sulfonamide] | – | – | > 5 | > 5 | – | –
O=C(Nc1ccc(F)c(Oc2ccc3nccnc3c2)c1)c1cccc(F)c1 [Compound C017, 3-fluoro-N-(4-fluoro-3-(quinoxalin-6-yloxy)phenyl)benzamide] | 70 to 89 | – | > 5 | – | – | –
CCCS(=O)(=O)Nc1cc(F)cc(Oc2ccc3nccnc3c2)c1 [Compound C019, N-(3-fluoro-5-(quinoxalin-6-yloxy)phenyl)propane-1-sulfonamide] | < 70 | – | 1 to 5 | – | – | –
CCCS(=O)(=O)Nc1cc(F)cc(Oc2ccc3ncc(N4CCOCC4)nc3c2)c1 [Compound C030, N-(3-fluoro-5-((3-morpholinoquinoxalin-6-yl)oxy)phenyl)propane-1-sulfonamide] | – | – | > 5 | – | – | –
O=C(Nc1cccc(F)c1)Nc1cccc(Oc2ccc3ncc(N4CCNCC4)nc3c2)c1 [Compound C037, 1-(3-fluorophenyl)-3-(3-((3-(piperazin-1-yl)quinoxalin-6-yl)oxy)phenyl)urea] | > 89 | 70 to 89 | – | > 5 | – | –
O=C(Nc1cccc(F)c1)Nc1cccc(Oc2ccc3ncc(N4CCOCC4)nc3c2)c1 [Compound C042, 1-(3-fluorophenyl)-3-(3-((3-morpholinoquinoxalin-6-yl)oxy)phenyl)urea] | > 89 | 70 to 89 | – | > 5 | – | –
O=C(Nc1cc(F)cc(F)c1)Nc1cccc(Oc2ccc3ncc(N4CCOCC4)nc3c2)c1 [Compound C045, 1-(3,5-difluorophenyl)-3-(3-((3-morpholinoquinoxalin-6-yl)oxy)phenyl)urea] | 70 to 89 | < 70 | – | > 5 | – | –
O=C(Nc1ccc(F)cc1)Nc1ccc(F)c(Oc2ccc3ncc(N4CCOCC4)nc3c2)c1 [Compound C053, 1-(4-fluoro-3-((3-morpholinoquinoxalin-6-yl)oxy)phenyl)-3-(4-fluorophenyl)urea] | > 89 | 70 to 89 | 1 to 5 | – | – | –
O=C(Nc1cccc(Cl)c1)Nc1ccc(F)c(Oc2ccc3ncc(N4CCOCC4)nc3c2)c1 [Compound C055, 1-(3-chlorophenyl)-3-(4-fluoro-3-((3-morpholinoquinoxalin-6-yl)oxy)phenyl)urea] | > 89 | 70 to 89 | – | > 5 | – | –
O=C(Nc1ccc(F)c(Cl)c1)Nc1ccc(F)c(Oc2ccc3ncc(N4CCOCC4)nc3c2)c1 [Compound C056, 1-(3-chloro-4-fluorophenyl)-3-(4-fluoro-3-((3-morpholinoquinoxalin-6-yl)oxy)phenyl)urea] | > 89 | 70 to 89 | – | > 5 | – | –
O=C(Nc1ccc(Cl)cc1)Nc1ccc(F)c(Oc2ccc3ncc(N4CCOCC4)nc3c2)c1 [Compound C057, 1-(4-chlorophenyl)-3-(4-fluoro-3-((3-morpholinoquinoxalin-6-yl)oxy)phenyl)urea] | > 89 | 70 to 89 | – | – | – | –
O=C(Nc1ccc(Cl)c(F)c1)Nc1ccc(F)c(Oc2ccc3ncc(N4CCOCC4)nc3c2)c1 [Compound C058, 1-(4-chloro-3-fluorophenyl)-3-(4-fluoro-3-((3-morpholinoquinoxalin-6-yl)oxy)phenyl)urea] | > 89 | 70 to 89 | – | 2 to 5 | – | –
COc1ccc(NC(=O)Nc2cccc(Oc3ccc4nccnc4c3)c2)cc1 [Compound C069, 1-(4-methoxyphenyl)-3-(3-(quinoxalin-6-yloxy)phenyl)urea] | – | – | – | – | < 0.1 | < 0.1
CCCNC(=O)Nc1cccc(Oc2ccc3nccnc3c2)c1 [Compound C071, 1-propyl-3-(3-(quinoxalin-6-yloxy)phenyl)urea] | < 70 | < 70 | > 5 | – | – | –
O=C(Nc1cccc(Oc2ccc3nccnc3c2)c1)NC1CC1 [Compound C072, 1-cyclopropyl-3-(3-(quinoxalin-6-yloxy)phenyl)urea] | – | – | > 5 | – | – | –
O=C(Nc1ccc(Oc2ccc3nccnc3c2)cc1)c1cccc(C(F)(F)F)c1 [Compound C078, N-(4-(quinoxalin-6-yloxy)phenyl)-3-(trifluoromethyl)benzamide] | 70 to 89 | – | > 5 | – | – | –
O=C(Nc1ccc(Oc2ccc3ncc(N4CCOCC4)nc3c2)cc1)Nc1ccc(C(F)(F)F)cc1 [Compound C083, 1-(4-((3-morpholinoquinoxalin-6-yl)oxy)phenyl)-3-(4-(trifluoromethyl)phenyl)urea] | 70 to 89 | 70 to 89 | > 5 | – | – | –
O=C(Nc1ccc(Cl)cc1)Nc1ccc(Oc2ccc3ncc(N4CCOCC4)nc3c2)cc1 [Compound C085, 1-(4-chlorophenyl)-3-(4-((3-morpholinoquinoxalin-6-yl)oxy)phenyl)urea] | 70 to 89 | – | – | – | – | –
O=C(Nc1ccc(Oc2ccc3nccnc3c2)cc1F)c1cncc(C(F)(F)F)c1 [Compound C099, N-(2-fluoro-4-(quinoxalin-6-yloxy)phenyl)-5-(trifluoromethyl)nicotinamide] | < 70 | – | > 5 | – | – | –
O=C(Nc1ccc(Oc2ccc3nccnc3c2)cc1F)c1ccnc(C(F)(F)F)c1 [Compound C100, N-(2-fluoro-4-(quinoxalin-6-yloxy)phenyl)-2-(trifluoromethyl)isonicotinamide] | < 70 | – | > 5 | – | – | –
O=C(Nc1cccc(Cl)c1)Nc1ccc(Oc2ccc3nccnc3c2)c(F)c1 [Compound C101, 1-(3-chlorophenyl)-3-(3-fluoro-4-(quinoxalin-6-yloxy)phenyl)urea] | 70 to 89 | – | < 1 | – | – | –
O=C(Nc1ccc(Cl)cc1)Nc1ccc(Oc2ccc3nccnc3c2)c(F)c1 [Compound C102, 1-(4-chlorophenyl)-3-(3-fluoro-4-(quinoxalin-6-yloxy)phenyl)urea] | 70 to 89 | – | – | – | – | –
O=C(Nc1ccc(Oc2ccc3ncc(O)nc3c2)cc1)Nc1ccc(Cl)c(C(F)(F)F)c1 [Compound C103, 1-(4-chloro-3-(trifluoromethyl)phenyl)-3-(4-((3-hydroxyquinoxalin-6-yl)oxy)phenyl)urea] | – | – | – | > 5 | – | –
